Experimental data from patent US20230330104A1, “PRESERVATIVE-FREE OPHTHALMIC PHARMACEUTICAL EMULSION AND ITS APPLICATION” (Caravel Therapeutics, Inc., priority 2022, published 2023).
Values joined by “and” are separate entries in the source; they are usually repeats but may differ in a detail not shown here. Equal entries are not always repeated. “Also recorded” adds a separate entry of the source.

Assays:
[1] = Stability study (ICH Q1A(R2)) of the emulsion; type: physicochemical; conditions: accelerated condition
Method: In this section, stability study is conducted using the abovementioned Example 1 as an example. The stability study is performed according to common practices known such as ICH HARMONISED TRIPARTITE GUIDELINE-Topic Q1A(R2) <Stability Testing of new Drug Substances and Products> and inspection items are screened based on USP chapter 771 and 1771. The stability study is carried out under two conditions: temperature of 5° C.±3° C. with no humidity; and temperature of 25° C.±2° C. with the relative humidity of 60%±5%. LBN content is determined with an HPLC equipped with an UV detector and using a mixture of two mobile phases. The HPLC condition reports as the following: [table]

[2] = system: patients diagnosed with open angle glaucoma; assay: IOP measurement after emulsion instillation; type: in vivo, human; conditions: baseline 17.68 ± 4.11, mean ± SD
Source text: (§1) The patients diagnosed with open angle glaucoma in total are 35 eyes of 20 patients, wherein 10 eyes are diagnosed as POAG, and 25 eyes are NTG, besides 2 eyes had received prior corneal refractive surgery, and 1 eye had undergone cataract extraction and intraocular lens implantation. In the aspect of the medication using, 20 eyes are treatment naïve upon entry of the study (that is they are not using IOP lowering medication), and 15 eyes are previously treated with IOP lowering medication. The IOP lowering medication in the treated patients were requested for the following medication washout period: 4 weeks for beta-blockers and prostaglandin analogues, 2-4 weeks for alpha-agonists, and 1 week for carbonic anhydrase inhibitors in order to eliminate the experimental errors.
All patients are received the best corrected visual acuity test (BCVA), IOP measurement, optical coherence tomography (OCT), laser speckle flowgraph (LSFG) evaluation, fundus photo, visual field examination, blood pressure (BP), and heart rate measurement, and then these obtained data are averaged as the baseline data of the experiment, but the intraocular eye disease other than OAG, significant cataract influencing refractive errors or visual field result, systemic disease with resultant visual field defect, and unreliable LSFG results are excluded. […]

[3] = system: optic nerve head area; assay: Laser speckle flowgraph (LSFG) evaluation, mean blur rate and pulse waveform; type: in vivo, human; conditions: for MS (mean skew): baseline 11.92 ± 3.94; for MS (mean skew) / MBRt (mean blur rate of tissue area) / MF (mean fluctuation) / MATI (mean acceleration time index) / MBRv (mean blur rate of vessel area) / MBOT (mean blowout time) / MBOS (mean blowout score): mean ± SD; for MBRt (mean blur rate of tissue area): baseline 12.65 ± 3.57; for MF (mean fluctuation): baseline 13.76 ± 3.79; for MATI (mean acceleration time index): baseline 32.62 ± 5.80; for MBRv (mean blur rate of vessel area): baseline 40.24 ± 10.65; for MBOT (mean blowout time): baseline 50.53 ± 8.53; for MBOS (mean blowout score): baseline 75.27 ± 6.51; for MBRt (%), percentage of baseline / MBRv (%), percentage of baseline: baseline 100.0 ± 0
Source text: as §1
(§2) All patients are received the best corrected visual acuity test (BCVA), IOP measurement, optical coherence tomography (OCT), laser speckle flowgraph (LSFG) evaluation, fundus photo, visual field examination, blood pressure (BP), and heart rate measurement, and then these obtained data are averaged as the baseline data of the experiment, but the intraocular eye disease other than OAG, significant cataract influencing refractive errors or visual field result, systemic disease with resultant visual field defect, and unreliable LSFG results are excluded.
In the LSFG evaluation, one drop of said emulsion is instilled in the examined eyes at clinic. Afterward, LSFG measurements are repeated at 30 minutes and 2 hours post-LBN instillation. The patients would continuously instill the emulsion once every night for one month, and return to clinic again for another LSFG exam. Laser speckle flowgraph (LSFG-NAVI version 3.1.39.2 software, Softcare Ltd., Fukuoka, Japan) are used to measure the mean blur rate (MBR) of the optic nerve head area for pulse waveform analysis in all patients. Averaged MBR and pulse waveform parameters are documented at each LSFG measurement in order to evaluate the effect of latanoprostene bunod using on microcirculation of optic nerve head.

[4] = system: patients diagnosed with open angle glaucoma; assay: Blood pressure, ocular perfusion pressure and heart rate measurement; type: in vivo, human; conditions: for MOPP (mean ocular perfusion pressure): baseline 48.82 ± 7.10; for MOPP (mean ocular perfusion pressure) / MHR (mean heart rate) / MBP (mean blood pressure): mean ± SD; for MHR (mean heart rate): baseline 74.03 ± 8.95; for MBP (mean blood pressure): baseline 99.69 ± 9.90
Source text: as §1, §2

[5] = all time points, Wilcoxon signed rank test

**Q.** For `O=C(CCC/C=C\C[C@@H]1[C@@H](CC[C@@H](O)CCc2ccccc2)[C@H](O)C[C@@H]1O)OCCCCO[N+](=O)[O-]` [LBN, Latanoprostene bunod], which “assay of LBN upon storage” value [1] is on record?
**A.** remained unchanged

**Q.** What about the “MIOP (mean intraocular pressure)” value ([2]; 30 minutes after instillation) of the same compound?
**A.** 18.29 ± 4.00 mmHg

**Q.** And the “MIOP (mean intraocular pressure)” value ([2]; 2 hours after instillation)?
**A.** 17.24 ± 4.14 mmHg

**Q.** What about the “MS (mean skew)” value ([3]; 1 month) of the same compound?
**A.** 10.99 ± 2.30 AU

**Q.** What about the “MBRt (mean blur rate of tissue area)” value ([3]; 1 month) of the same compound?
**A.** 12.67 ± 3.80 AU

**Q.** And the “MF (mean fluctuation)” value ([3]; 1 month)?
**A.** 13.44 ± 3.31 AU

**Q.** And the “MATI (mean acceleration time index)” value ([3]; 1 month)?
**A.** 31.71 ± 4.11%

**Q.** And the “MBRv (mean blur rate of vessel area)” value ([3]; 1 month)?
**A.** 45.49 ± 12.22 AU

**Q.** And the “MBOT (mean blowout time)” value ([3]; 1 month)?
**A.** 52.67 ± 6.62 AU

**Q.** What about the “MBOS (mean blowout score)” value ([3]; 1 month) of the same compound?
**A.** 77.26 ± 6.26 AU

**Q.** And the “MBRt (%), percentage of baseline” value ([3]; 1 month)?
**A.** 101.84 ± 15.33%

**Q.** And the “MBRv (%), percentage of baseline” value ([3]; 1 month)?
**A.** 113.91 ± 26.53%

**Q.** What about the “MS (mean skew)” value ([3]; 30 minutes) of the same compound?
**A.** 11.84 ± 2.08 AU

**Q.** What about the “MBRt (mean blur rate of tissue area)” value ([3]; 30 minutes) of the same compound?
**A.** 12.48 ± 3.04 AU

**Q.** What about the “MF (mean fluctuation)” value ([3]; 30 minutes) of the same compound?
**A.** 13.94 ± 4.30 AU

**Q.** What about the “MATI (mean acceleration time index)” value ([3]; 30 minutes) of the same compound?
**A.** 31.51 ± 4.04%

**Q.** And the “MBRv (mean blur rate of vessel area)” value ([3]; 30 minutes)?
**A.** 41.95 ± 10.03 AU

**Q.** What about the “MBOT (mean blowout time)” value ([3]; 30 minutes) of the same compound?
**A.** 49.76 ± 6.17 AU

**Q.** What about the “MBOS (mean blowout score)” value ([3]; 30 minutes) of the same compound?
**A.** 74.44 ± 7.60 AU

**Q.** What about the “MBRt (%), percentage of baseline” value ([3]; 30 minutes) of the same compound?
**A.** 100.63 ± 14.37%

**Q.** And the “MBRv (%), percentage of baseline” value ([3]; 30 minutes)?
**A.** 105.97 ± 16.49%

**Q.** And the “MS (mean skew)” value ([3]; 2 hours)?
**A.** 11.82 ± 2.58 AU

**Q.** And the “MBRt (mean blur rate of tissue area)” value ([3]; 2 hours)?
**A.** 12.73 ± 3.46 AU

**Q.** What about the “MF (mean fluctuation)” value ([3]; 2 hours) of the same compound?
**A.** 13.46 ± 3.95 AU

**Q.** What about the “MBRv (mean blur rate of vessel area)” value ([3]; 2 hours) of the same compound?
**A.** 45.14 ± 10.59 AU

**Q.** And the “MBOT (mean blowout time)” value ([3]; 2 hours)?
**A.** 52.09 ± 5.56 AU

**Q.** What about the “MBOS (mean blowout score)” value ([3]; 2 hours) of the same compound?
**A.** 76.24 ± 6.67 AU

**Q.** And the “MBRt (%), percentage of baseline” value ([3]; 2 hours)?
**A.** 101.84 ± 13.71%

**Q.** What about the “MBRv (%), percentage of baseline” value ([3]; 2 hours) of the same compound?
**A.** 114.36 ± 20.02% and 114.36 ± 20.2 %

**Q.** And the “mean blur rate of tissue area (MBRt), difference from baseline” value [3, 5]?
**A.** not significantly different

**Q.** What about the “MOPP (mean ocular perfusion pressure)” value ([4]; 1 month) of the same compound?
**A.** 50.80 ± 12.06 mmHg

**Q.** And the “MHR (mean heart rate)” value ([4]; 1 month)?
**A.** 72.03 ± 10.68 min⁻¹

**Q.** And the “MBP (mean blood pressure)” value ([4]; 1 month)?
**A.** 98.08 ± 12.06 mmHg

**Q.** And the “MOPP (mean ocular perfusion pressure)” value ([4]; 30 minutes)?
**A.** 47.87 ± 8.07 mmHg

**Q.** And the “MBP (mean blood pressure)” value ([4]; 30 minutes)?
**A.** 99.62 ± 11.54 mmHg

**Q.** What about the “MOPP (mean ocular perfusion pressure)” value ([4]; 2 hours) of the same compound?
**A.** 48.65 ± 9.48 mmHg

**Q.** What about the “MHR (mean heart rate)” value ([4]; 2 hours) of the same compound?
**A.** 77.77 ± 11.11 min⁻¹

**Q.** What about the “MBP (mean blood pressure)” value ([4]; 2 hours) of the same compound?
**A.** 98.88 ± 14.12 mmHg

**Q.** And the “mean blood pressure (MBP), difference from baseline” value [4, 5]?
**A.** not significantly different

**Q.** And the “mean ocular perfusion pressure (MOPP), difference from baseline” value [4, 5]?
**A.** not significantly different; also recorded: has not differed
